Activity calls are given as the source filed them. The rule behind the calls is not given here.

We go through six molecules from ChEMBL document CHEMBL1921776, “Synthesis and biological activity of acetyl-protected hydroxybenzyl diethyl phosphates (EHBP) as potential chemotherapeutic agents” (Bioorg Med Chem Lett, 2011).

Experiment [1] relates to HT-29. Briefly: Cytotoxicity against human HT-29 cells assessed as growth inhibition after 24 hrs by MTT assay. The class given is functional, cell-based. The settings on record: HT-29, 24 h.
For a further experiment, the system named is Jurkat. Briefly: Cytotoxicity against human Jurkat cells assessed as growth inhibition after 24 hrs by MTT assay. In kind it is functional, cell-based. For orientation: Formazan colour is commonly taken as a measure of viable cells.
In the next experiment the test system is MCF7. Briefly: Cytotoxicity against human MCF7 cells assessed as growth inhibition after 24 hrs by MTT assay. The class given is functional, cell-based. The settings on record: MCF7, 24 h.
For experiment [2], the system named is BXPC-3. The experiment can be described thus: Cytotoxicity against human BxPC3 cells assessed as growth inhibition after 24 hrs by MTT assay. The class given is functional, cell-based. The settings on record: BXPC-3, 24 h.
For experiment [3], the system named is HT-29. Briefly: Cell cycle arrest in human HT-29 cells assessed as reduction in G0/G1 phase after 24 hrs using propidium iodide staining-based flow cytometry. The class given is functional. (Flow cytometry measures light scatter and fluorescence of single cells or particles in a stream.)
Experiment [4] deals with HT-29. Briefly: Cell cycle arrest in human HT-29 cells assessed as increase in G2/M phase after 24 hrs using propidium iodide staining-based flow cytometry. The class given is functional.
Experiment [5] relates to HT-29. Briefly: Induction of apoptosis in human HT-29 cells at 300 uM after 24 hrs using annexin V-FITC and propidium iodide staining by flow cytometry. In kind it is functional.
Experiment [6] relates to HT-29. Briefly: Induction of apoptosis in human HT-29 cells at 100 uM after 24 hrs using annexin V-FITC and propidium iodide staining by flow cytometry. In kind it is functional.
In experiment [7] the test system is HT-29. Briefly: Cell cycle arrest in human HT-29 cells assessed as increase in S phase at 100 to 300 uM after 24 hrs using propidium iodide staining-based flow cytometry. In kind it is functional.
The subject of experiment [8] is HT-29. Briefly: Cell cycle arrest in human HT-29 cells assessed as increase in G2/M phase at 100 to 300 uM after 24 hrs using propidium iodide staining-based flow cytometry. In kind it is functional.
Experiment [9] has as its system HT-29. The experiment can be described thus: Cell cycle arrest in human HT-29 cells assessed as reduction in G0/G1 phase at 100 to 300 uM after 24 hrs using propidium iodide staining-based flow cytometry. In kind it is functional.
Experiment [10] relates to HT-29. The experiment can be described thus: Antiproliferative activity against human HT-29 cells assessed as decrease of PCNA expression after 24 hrs by ELISA. In kind it is functional, cell-based. In general terms: In an ELISA, binding on a coated surface is turned into a signal by an enzyme label.
In experiment [11] the test system is A549. The experiment can be described thus: Cytotoxicity against human A549 cells assessed as growth inhibition after 48 hrs by trypan blue assay. Particulars: A549, 48 h. In kind it is functional, cell-based.
Experiment [12] deals with BXPC-3. Briefly: Cytotoxicity against human BxPC3 cells assessed as growth inhibition after 48 hrs by trypan blue assay. The class given is functional, cell-based. Particulars: BXPC-3, 48 h.
Experiment [13] has as its system HT-29. The experiment can be described thus: Cytotoxicity against human HT-29 cells assessed as growth inhibition after 48 hrs by trypan blue assay. In kind it is functional, cell-based. The settings on record: HT-29, 48 h.
The test system of experiment [14] is MIA PaCa-2. The experiment can be described thus: Cytotoxicity against human MIAPaCa2 cells assessed as growth inhibition after 48 hrs by trypan blue assay. Particulars: MIA PaCa-2, 48 h. In kind it is functional, cell-based.
Experiment [15] relates to SCC-25. Briefly: Cytotoxicity against human SCC25 cells assessed as growth inhibition after 48 hrs by trypan blue assay. In kind it is functional, cell-based. The settings on record: SCC-25, 48 h.
Experiment [16] has as its system HCT-15. The experiment can be described thus: Cytotoxicity against human HCT15 cells assessed as growth inhibition after 48 hrs by trypan blue assay. In kind it is functional, cell-based. Particulars: HCT-15, 48 h.
The subject of experiment [17] is LNCaP. The experiment can be described thus: Cytotoxicity against human LNCAP cells assessed as growth inhibition after 48 hrs by trypan blue assay. In kind it is functional, cell-based.
The subject of experiment [18] is BXPC-3. Briefly: Ratio of p-NO-ASA IC50 to compound IC50 for human BxPC3 cells assessed as growth inhibition after 48 hrs by trypan blue assay. The class given is functional.
In experiment [19] the test system is HT-29. Briefly: Cell cycle arrest in human HT-29 cells assessed as accumulation of cells at G0/G1 phase at 3 uM after 24 hrs using propidium iodide staining-based flow cytometry (reference value: 74.8%). The class given is functional.
Experiment [20] deals with HT-29. The experiment can be described thus: Cell cycle arrest in human HT-29 cells assessed as accumulation of cells at G2/M phase at 3 uM after 24 hrs using propidium iodide staining-based flow cytometry (reference value: 5.8%). The class given is functional.
In experiment [21] the test system is HT-29. The experiment can be described thus: Cell cycle arrest in human HT-29 cells assessed as accumulation of cells at G2/M phase at 10 uM after 24 hrs using propidium iodide staining-based flow cytometry (reference value: 5.8%). In kind it is functional.
The subject of experiment [22] is HT-29. The experiment can be described thus: Ratio of p-NO-ASA IC50 to compound IC50 for human HT-29 cells assessed as growth inhibition after 48 hrs by trypan blue assay. In kind it is functional.
Experiment [23] concerns HT-29. The experiment can be described thus: Induction of apoptosis in human HT-29 cells at 50 uM after 24 hrs using annexin V-FITC and propidium iodide staining by flow cytometry. In kind it is functional.
Experiment [24] deals with SCC-25. The experiment can be described thus: Ratio of p-NO-ASA IC50 to compound IC50 for human SCC25 cells assessed as growth inhibition after 48 hrs by trypan blue assay. The class given is functional.
Experiment [25] relates to HT-29. The experiment can be described thus: Cell cycle arrest in human HT-29 cells assessed as accumulation of cells at G0/G1 phase at 10 uM after 24 hrs using propidium iodide staining-based flow cytometry (reference value: 74.8%). The class given is functional.
Experiment [26] deals with A549. Briefly: Ratio of p-NO-ASA IC50 to compound IC50 for human A549 cells assessed as growth inhibition after 48 hrs by trypan blue assay. In kind it is functional.
Experiment [27] deals with HT-29. Briefly: Cell cycle arrest in human HT-29 cells assessed as accumulation of cells at S phase at 10 uM after 24 hrs using propidium iodide staining-based flow cytometry (reference value: 19.4%). The class given is functional.
In experiment [28] the test system is LNCaP. The experiment can be described thus: Ratio of p-NO-ASA IC50 to compound IC50 for human LNCAP cells assessed as growth inhibition after 48 hrs by trypan blue assay. The class given is functional.
The test system of experiment [29] is HT-29. The experiment can be described thus: Induction of apoptosis in human HT-29 cells after 24 hrs using annexin V-FITC and propidium iodide staining by flow cytometry. The class given is functional, cell-based.
Experiment [30] concerns HT-29. Briefly: Cell cycle arrest in human HT-29 cells assessed as accumulation of cells at S phase at 3 uM after 24 hrs using propidium iodide staining-based flow cytometry (reference value: 19.4%). The class given is functional.
Experiment [31] relates to MIA PaCa-2. Briefly: Ratio of p-NO-ASA IC50 to compound IC50 for human MIAPaCa2 cells assessed as growth inhibition after 48 hrs by trypan blue assay. In kind it is functional.
Experiment [32] concerns HT-29. The experiment can be described thus: Induction of apoptosis in human HT-29 cells at 10 uM after 24 hrs using annexin V-FITC and propidium iodide staining by flow cytometry. The class given is functional.
The subject of experiment [33] is HCT-15. Briefly: Ratio of p-NO-ASA IC50 to compound IC50 for human HCT15 cells assessed as growth inhibition after 48 hrs by trypan blue assay. In kind it is functional.

Consider `CCOP(=O)(OCC)OCc1ccccc1OC(C)=O`, for which the IC50 turned out to be 82700 nM with HT-29 [1], 110000 nM in the experiment on Jurkat, 62700 nM in the experiment on MCF7 and 155000 nM with BXPC-3 [2].
`CCOP(=O)(OCC)OCc1cccc(OC(C)=O)c1`: the Activity result is “Dose-dependent effect” with HT-29 [3], 79% in the experiment with HT-29 [5], 19% in the experiment on HT-29 [6] and “Dose-dependent effect” in the experiment on HT-29 [10]. Further, the outcome in the experiment with HT-29 [4], with HT-29 [7], with HT-29 [8] and in the experiment with HT-29 [9] was Active. Further, the IC50 in the experiment with HT-29 [1] was determined as 273000 nM; in the experiment on Jurkat, 451000 nM; in the experiment on MCF7, 214000 nM; in the experiment with BXPC-3 [2] it was 162000 nM.
With `CCOP(=O)(OCC)OCc1ccc(OC(C)=O)c(C)c1`, the IC50 with HT-29 [1] stood at 310 nM; in the experiment with Jurkat, 290 nM; in the experiment with MCF7 it was 320 nM; in the experiment on BXPC-3 [2] it was 280 nM.
With `CC(=O)Oc1ccccc1C(=O)Oc1ccc(CO[N+](=O)[O-])cc1`, the IC50 in the experiment with A549 [11], in the experiment with BXPC-3 [12], with HT-29 [13], with MIA PaCa-2 [14], in the experiment on SCC-25 [15] and in the experiment on HCT-15 [16] was 10 µM each time. Also, the concentration for half-maximal inhibition (IC50) with LNCaP [17] amounted to 10 µM.
Take `CCOP(=O)(OCC)OCc1ccc(OC(C)=O)c(Cl)c1`: the IC50 with HT-29 [1] was determined as 1300 nM; in the experiment with Jurkat it was 680 nM; in the experiment with MCF7 it was 700 nM; with BXPC-3 [2], 650 nM.
Turning to `CCOP(=O)(OCC)OCc1ccc(OC(C)=O)cc1`, the Activity entry with HT-29 [3] was “Dose-dependent effect”; in the experiment with HT-29 [19], 53.2%; in the experiment with HT-29 [20], 9.6%; in the experiment with HT-29 [21], 16.3%; with HT-29 [23], 79%; in the experiment with HT-29 [25], 42.9%. For the same molecule, the Activity is 40.8% in the experiment with HT-29 [27]; “Dose-dependent effect” in the experiment on HT-29 [10]; “Dose-dependent effect” in the experiment with HT-29 [29]; 38.2% with HT-29 [30]; 25% with HT-29 [32]. Further, the outcome with HT-29 [4] was Active. The “Ratio IC50” value with BXPC-3 [18], in the experiment with HT-29 [22], in the experiment on SCC-25 [24], with A549 [26], with LNCaP [28] and with MIA PaCa-2 [31] was 17 in each case. In the experiment on HCT-15 [33], the “Ratio IC50” value is reported as 17. For the same molecule, the half-maximal inhibitory concentration (IC50) in the experiment on HT-29 [1] was found to be 820 nM; in the experiment with Jurkat, 650 nM; in the experiment on MCF7, 670 nM; in the experiment on BXPC-3 [2] it was 670 nM.

For orientation: IC50 means the concentration that gives 50% inhibition.
